Test results published in article PMC7714489 (Journal of medicinal chemistry, 2015).

Tests used:
Format in all cases: cell-based
[1] = system: PC3 cells (a human prostate cancer cell line); assay: Toxicity in PC3 cells; conditions: 100 μM; data not shown
cellular GAPDH levels = assay: Effect on cellular GAPDH levels; conditions: 100 μM; data not shown
thymidine uptake = assay: Effect on thymidine uptake; conditions: 100 μM; data not shown
[2] = system: subgenomic HCV replicon in Huh-7 cells; assay: HCV subgenomic replicon assay in Huh-7 cells; conditions: Huh-7 replicon
HepG2 cells = assay: Lactate production assay; conditions: 10 μM, HepG2, 14 days

Compound: CCOC(=O)CCc1ccccc1O[P@@](=O)(N[C@@H](C)C(=O)OCC)OC[C@H]1O[C@@H](n2cnc3c(N)nc(N)nc32)[C@](C)(O)C1O (stereo in doubt) [15b(Rp), Ethyl 3-(2-(((R)-(((2R,3R,4R,5R)-5-(2,6-Diamino-9H-purin-9-yl)-3,4-dihydroxy-4-methyltetrahydrofuran-2-yl)methoxy)(((S)-1-ethoxy-1-oxopropan-2-yl)amino)phosphoryl)oxy)phenyl)-propanoate]
- toxicity in PC3 cells [1]: did not observe any toxicity
- effect on cellular GAPDH levels (cellular GAPDH levels): did not observe
- effect on thymidine uptake (thymidine uptake): did not observe

Compound: COc1nc(N)nc2c1ncn2[C@@H]1O[C@H](COP(=O)(N[C@@H](C)C(=O)OCC(C)(C)C)Oc2cccc3ccccc23)[C@@H](O)[C@@]1(C)O (stereo partly drawn) [compound 1, reference compound]
- inhibition of HCV RNA replication (in words) [2]: nanomolar potency
- cell death in lactic acid experiment (HepG2 cells): excessive cell death

Compound: CCOC(=O)CCc1ccccc1OP(=O)(OC[C@H]1O[C@@H](n2cnc3c(N)nc(N)nc32)[C@](C)(O)[C@@H]1O)Oc1ccccc1CCC(=O)OCC [compound 18]
- inhibition of HCV RNA replication (in words) [2]: inactive
